Measured values taken from patent US4292314A, “Cardioactive 12-dehydrodigoxin-oximes” (Boehringer Mannheim GmbH, priority 1979, dated 1981).
Read-outs that look alike come from different tables or passages of the source.

Legend:
[1] = Pharmacokinetic investigations on awake cats, intravenous injection of 3H-marked test compounds; assay type: in vivo, cat; settings: for distribution volume / elimination constant / excretion in urine: awake cats, i.v., digoxin 30 μg./kg., Cpd. 1 and Cpd. 7 100 μg./kg.; for excretion in urine: urine collected for 14 days; for dosage needed to achieve the same plasma concentration, relative to digoxin: from total clearance
Experimental: Pharmacokinetic investigations were carried out on awake cats, the test compounds being injected intravenously in the ^3 H-marked form. Over the course of 48 hours, blood samples were taken via an implanted catheter for the determination of the radioactivity in the plasma. The urine was collected for 14 days. The elimination constant was calculated from the decrease of the plasma concentration and the amount excreted in the urine.

in vivo = settings: cat, in vivo
Experimental: (§1) The pharmacological action of the new compounds according to the present invention was determined by the comparison of 12-dehydrodigoxin oxime (Compound 1 from) and 12-dehydrodigoxin-o-methyloxime (Compound 7 from) with digoxin, which is a known pharmaceutical for the treatment of cardiac insufficiency, using the following experimental procedure:
(§2) The positive inotropic and cardiotoxic action was tested on cats with pentobarbital-induced heart insufficiency. Increasing dosages were injected at intervals of 10 minutes, so that the total dosage increased in each case by the factor √2. The criterion for the therapeutically relevant, positively inotropic action was the increase of the maximum pressure increase rate by 1.5 or 3.0 mm. Hg/sec (DE1.5 and DE3.0). The quotient from both values is a measure for the steepness of the dosage activity line.
(§3) The measure for the cardiotoxicity was the dosage at which the first disturbances of the induction of stimulation took place. The point of time of the commencement of arrhythmias as ascertained from the electrocardiogram and the related dosage calculated by interpolation. The quotient from this cardiotoxic dosage and the DE1.5 served as a measure for the therapeutic breadth.

[2] = test system: cats with pentobarbital-induced heart insufficiency; assay: animal or person; settings: for ED (1.5 mmHg/sec increase) / ED (3.0 mmHg/sec increase): Felis catus, 10 min; for ED (1.5 mmHg/sec increase): read-out: DE1.5; for ED (3.0 mmHg/sec increase): read-out: DE3.0; for quotient of DE3.0 and DE1.5, steepness of the dosage activity line: cats, fractionated injection
Experimental: as §1, §2, §3

[3] = humans; cited from earlier work

| Compound | distribution volume [1] [kg⁻¹] | elimination constant [1] [h⁻¹] | excretion in urine [1] | dosage needed to achieve the same plasma concentration, relative to digoxin ([1]; cats) | elimination constant compared with digoxin ([1]; in words, cats) | TD50 (in vivo) [mg/kg] | selectivity ratio (in vivo) | ED (1.5 mmHg/sec increase) [2] [mg/kg] | ED (3.0 mmHg/sec increase) [2] [mg/kg] | quotient of DE3.0 and DE1.5, steepness of the dosage activity line [2] | distribution volume compared with digoxin ([1]; in words, cats) | total clearance compared with digoxin ([1]; in words, cats) | dosage activity line compared with digoxin ([2]; in words) | elimination constant [3] |
| --- | --- | --- | --- | --- | --- | --- | --- | --- | --- | --- | --- | --- | --- | --- |
| C[C@H]1O[C@@H](O[C@H]2[C@@H](O)C[C@H](O[C@H]3[C@@H](O)C[C@H](O[C@H]4CC[C@@]5(C)[C@H](CC[C@@H]6[C@@H]5CC(=NO)[C@]5(C)[C@@H](C7=CC(=O)OC7)CC[C@]65O)C4)O[C@@H]3C)O[C@@H]2C)C[C@H](O)[C@@H]1O [Compound 1, 12-Dehydrodigoxin oxime] | 2.74 | 0.0258 | 30 % of dose | about 45 % of the dosage of digoxin | even greater | 0.51 | 4.85 | 0.105 | 0.236 | 1.98 | – | – | – | – |
| CON=C1C[C@H]2[C@@H](CC[C@@H]3C[C@@H](O[C@H]4C[C@H](O)[C@H](O[C@H]5C[C@H](O)[C@H](O[C@H]6C[C@H](O)[C@H](O)[C@@H](C)O6)[C@@H](C)O5)[C@@H](C)O4)CC[C@@]32C)[C@@]2(O)CC[C@H](C3=CC(=O)OC3)[C@@]12C [Compound 7, 12-Dehydrodigoxin--O-methyloxime] | 1.47 | 0.0143 | 31 % of dose | 13 % of the dosage of digoxin | about equally as great as for digoxin | 1.37 | 4.1 | 0.334 | 0.817 | 3.56 | lower distribution volume | lower total clearance | flatter than in the case of digoxin | – |
| C[C@H]1O[C@@H](O[C@H]2[C@@H](O)C[C@H](O[C@H]3[C@@H](O)C[C@H](O[C@H]4CC[C@@]5(C)[C@H](CC[C@@H]6[C@@H]5C[C@@H](O)[C@]5(C)[C@@H](C7=CC(=O)OC7)CC[C@]65O)C4)O[C@@H]3C)O[C@@H]2C)C[C@H](O)[C@@H]1O [digoxin] | 13.3 | 0.01214 | 42.8 % of dose | – | – | 0.33 | 2.75 | 0.12 | 0.253 | 2.28 | – | – | – | about 0.015 h^-1 |
